Key:
[1] = tested on: human hepatoma cell line (SMMC-7721); test: MTT cytotoxicity assay, SMMC-7721; type: cell-based; details: SMMC-7721, 72 h, read-out: In Vitro Cytotoxicity (IC50, µM) SMMC7721
Method: (§1) The cytotoxicity of these compounds against three cancer cell lines was assayed using a conventional microtitre plate tetrazolium cytotoxicity assay. The human hepatoma cancer cell line (SMMC-7721), the colon cancer cell line (HCT-116), and the human breast cancer cell line (MCF-7) were provided by The Chinese Academy of Sciences cell bank. These cells were plated at a density of 1 × 10^5 cells/mL and incubated in a 96-well late for 24 h (37 °C, 5% CO2). The cells were then exposed to various concentrations of the compounds (0.0032, 0.016, 0.08, 0.4, 2, 10, and 50 µM/mL) continuously for 72 h. After this incubation, MTT solution (20 μL, 5 mg/mL) was added to each well and incubated for a further 4 h before removing the media. Formazan crystals were then dissolved by the addition of DMSO (100 μL per well). After mixing, the absorbance was read at 540 nm on a microplate reader. These assays were performed in three independent experiments. Wells containing no drugs, or CPT, were used as negative and positive controls, respectively. The IC50 values, defined as the concentration of compounds that produced a 50% decrease in surviving cells, were calculated using the Logit-method.

[2] = tested on: human colon cancer cell line (HCT-116); test: MTT cytotoxicity assay, HCT-116; type: cell-based; details: HCT-116, 72 h, read-out: In Vitro Cytotoxicity (IC50, µM) HCT-116
Method: as §1

[3] = tested on: human breast cancer cell line (MCF-7); test: MTT cytotoxicity assay, MCF-7; type: cell-based; details: MCF7, 72 h, read-out: In Vitro Cytotoxicity (IC50, µM) MCF-7
Method: as §1

[4] = Lactone stability in rat blood serum (HPLC); type: in vitro ADME; details: rat, serum
Method: Compounds E2, F2, G2, and H2 were dissolved in DMSO (100 μL, 4 mM/L) and incubated in rat blood serum (4 mL) at 37 °C. Aliquots were taken at different time points (0, 2, 4, 6, 8, 10, 12, and 24 h) and examined by HPLC, using CPT as the reference.

[5] = tested on: H22 mouse liver tumours; test: In vivo anti-tumour activity, H22 mouse liver tumour model; details: H22 KM mice, i.p. every two days
Method: Anti-tumour activity screens of CPT-bile acid analogues were conducted in KM mice with H22 mouse liver tumours. Briefly, female mice weighing 18–22 g were subcutaneously inoculated at the right flank with a tumour cell suspension (1 × 10^6 cells) in 0.2 mL of phosphate-buffered saline. The mice were divided into subgroups 24 h after inoculation. These groups (n = 4) were treated with either vehicle (control), CPT, or the CPT-bile acid analogues. Mice received i.p. treatments once every two days. When the tumour weight of the control group reached 1.0–1.5 g, the mice were killed and the TIR (%) calculated.

[6] = Body weight and surviving mice in the H22 in vivo study; set-up: species or system mouse; details: for Mice Number End of Study: 4 mice at start
Method: Anti-tumour activity screens of CPT-bile acid analogues were conducted in KM mice with H22 mouse liver tumours. […] These groups (n = 4) were treated with either vehicle (control), CPT, or the CPT-bile acid analogues. Mice received i.p. treatments once every two days.

Work on CC[C@@]1(OC(=O)CNC(=O)CCC(C)C2CCC3C4C(C[C@H](O)[C@]23C)[C@@]2(C)CC[C@@H](O)CC2C[C@H]4O)C(=O)OCc2c1cc1n(c2=O)Cc2cc3ccccc3nc2-1 (stereo partly drawn) [Compound E1, Camptothecin-20 (S)-O-glycine Ester-[N-(3′α,7′α,12′α-trihydroxy-24′-carbonyl-5′β-cholane)]] yielded a melting point of 200 to 203 °C, an IC50 [1] of 2.23 µM and an IC50 [2] of 2.9 µM. For the same compound, the IC50 [3] was 18.3 µM.

CC[C@@]1(OC(=O)CNC(=O)CCC(C)C2CCC3C4C(CC[C@]23C)[C@@]2(C)CC[C@@H](O)CC2C[C@@H]4O)C(=O)OCc2c1cc1n(c2=O)Cc2cc3ccccc3nc2-1 (stereo partly drawn) [Compound E3, Camptothecin-20 (S)-O-glycine Ester-[N-(3′α,7′β-dihydroxy-24′-carbonyl-5′β-cholane)]] showed a melting point of 209 to 211 °C, an IC50 [1] of 2.18 µM and an IC50 [2] of 2.4 µM. The IC50 [3] was 61 µM.

In the case of CC[C@@]1(OC(=O)CNC(=O)CCC(C)C2CCC3C4C(CC[C@]23C)[C@@]2(C)CC[C@@H](O)CC2C[C@H]4O)C(=O)OCc2c1cc1n(c2=O)Cc2cc3ccccc3nc2-1 (stereo partly drawn) [Compound E4, Camptothecin-20 (S)-O-glycine Ester-[N-(3′α,7′α-dihydroxy-24′-carbonyl-5′β-cholane)]], the melting point is reported as 202 to 203 °C, the IC50 [1] is reported as 2.25 µM and the IC50 [2] is reported as 2.88 µM. It also gave an IC50 [3] of 20 µM.

With CC[C@@]1(OC(=O)C(CCC(=O)OC)NC(=O)CCC(C)C2CCC3C4C(C[C@H](O)[C@]23C)[C@@]2(C)CC[C@@H](O)CC2C[C@H]4O)C(=O)OCc2c1cc1n(c2=O)Cc2cc3ccccc3nc2-1 (stereo partly drawn) [Compound F1, Camptothecin-20 (S)-O-(D-Glu (OMe)) Ester-[N-(3′α,7′α,12′α-trihydroxy-24′-carbonyl-5′β-cholane)]] the melting point was 195 to 196 °C, the IC50 [1] was 55.7 µM and the IC50 [2] was 70 µM. For the same compound, the IC50 [3] was 40 µM.

In the case of CC[C@@]1(OC(=O)C(CCC(=O)OC)NC(=O)CCC(C)C2CCC3C4CCC5C[C@H](O)CC[C@]5(C)C4C[C@H](O)[C@]23C)C(=O)OCc2c1cc1n(c2=O)Cc2cc3ccccc3nc2-1 (stereo partly drawn) [Compound F2, Camptothecin-20 (S)-O-(D-Glu(OMe))Ester-[N-(3′α,12′α-dihydroxy-24′-carbonyl-5′β-cholane)]], the melting point is reported as 199 to 200 °C, the half-life at 97.6 µM [4] is reported as greater than 24 h and the IC50 [1] is reported as 2.25 µM. For the same compound, the IC50 [2] was 36 µM and the IC50 [3] was 11.8 µM.

Compound CC[C@@]1(OC(=O)C(CCC(=O)OC)NC(=O)CCC(C)C2CCC3C4C(CC[C@]23C)[C@@]2(C)CC[C@@H](O)CC2C[C@@H]4O)C(=O)OCc2c1cc1n(c2=O)Cc2cc3ccccc3nc2-1 (stereo partly drawn) [Compound F3, Camptothecin-20 (S)-O-(D-Glu(OMe)) Ester-[N-(3′α,7′β-dihydroxy-24′-carbonyl-5′β-cholane)]] has a melting point of 187 to 189 °C, an IC50 [1] of 12.2 µM and an IC50 [2] of 13 µM. For the same compound, the IC50 [3] was 46.3 µM.

In the case of CC[C@@]1(OC(=O)C(CCC(=O)OC)NC(=O)CCC(C)C2CCC3C4C(CC[C@]23C)[C@@]2(C)CC[C@@H](O)CC2C[C@H]4O)C(=O)OCc2c1cc1n(c2=O)Cc2cc3ccccc3nc2-1 (stereo partly drawn) [Compound F4, Camptothecin-20 (S)-O-(D-Glu(OMe)) Ester-[N-(3′α 7′α-dihydroxy-24′-carbonyl-5′β-cholane)]], the melting point is reported as 182 to 185 °C, the IC50 [1] is reported as 2.23 µM and the IC50 [2] is reported as 20 µM. It also gave an IC50 [3] of 120 µM.

CC[C@@]1(OC(=O)COC(=O)CCC(C)C2CCC3C4C(C[C@H](O)[C@]23C)[C@@]2(C)CC[C@@H](O)CC2C[C@H]4O)C(=O)OCc2c1cc1n(c2=O)Cc2cc3ccccc3nc2-1 (stereo partly drawn) [Compound G1, Camptothecin-20 (S)-O-acetate-[N-(3′α,7′α,12′α-trihydroxy-24′-carbonyl-5′β-cholane)]] gave a melting point of 230 to 233 °C, an IC50 [1] of 0.71 µM and an IC50 [2] of 4 µM. The IC50 [3] was 10.9 µM.

In the case of CC[C@@]1(OC(=O)COC(=O)CCC(C)C2CCC3C4CCC5C[C@H](O)CC[C@]5(C)C4C[C@H](O)[C@]23C)C(=O)OCc2c1cc1n(c2=O)Cc2cc3ccccc3nc2-1 (stereo partly drawn) [Compound G2, Camptothecin-20 (S)-O-acetate-[N-(3′α,12′α-dihydroxy-24′-carbonyl-5′β-cholane)]], the melting point is reported as 221 to 224 °C, the half-life at 97.6 µM [4] is reported as greater than 24 h and the IC50 [1] is reported as 1.24 µM. It also gave an IC50 [2] of 2.05 µM and an IC50 [3] of 4 µM.

In the case of CC[C@@]1(OC(=O)COC(=O)CCC(C)C2CCC3C4C(CC[C@]23C)[C@@]2(C)CC[C@@H](O)CC2C[C@@H]4O)C(=O)OCc2c1cc1n(c2=O)Cc2cc3ccccc3nc2-1 (stereo partly drawn) [Compound G3, Camptothecin-20 (S)-O-acetate-[N-(3′α,7′β-dihydroxy-24′-carbonyl-5′β-cholane)]], the melting point is reported as 229 to 230 °C, the IC50 [1] is reported as 6.84 µM and the IC50 [2] is reported as 12.1 µM. It also gave an IC50 [3] of 62 µM.

In the case of CC[C@@]1(OC(=O)COC(=O)CCC(C)C2CCC3C4C(CC[C@]23C)[C@@]2(C)CC[C@@H](O)CC2C[C@H]4O)C(=O)OCc2c1cc1n(c2=O)Cc2cc3ccccc3nc2-1 (stereo partly drawn) [Compound G4, Camptothecin-20 (S)-O-acetate-[N-(3′α,7′α-dihydroxy-24′-carbonyl-5′β-cholane)]], the melting point is reported as 228 to 229 °C, the “TIR (%)” value ([5]; dose 19.21 × 3 µmol/kg) is reported as 35.45% and the “TIR (%)” value ([5]; dose 38.42 × 3 µmol/kg) is reported as 64.55%. The “TIR (%)” value ([5]; dose 57.63 × 3 µmol/kg) was 71.12%, the IC50 [1] was 0.14 µM and the IC50 [2] was 36 µM. For the same compound, the IC50 [3] was 70 µM, the “Mice Number End of Study” value ([6]; dose 19.21 × 3 µmol/kg i.p.) was 4 and the “Body Weight (g) End of Study” value ([6]; dose 19.21 × 3 µmol/kg i.p., start of study 19.1 g) was 19.4 g. For the same compound, the “Mice Number End of Study” value ([6]; dose 38.42 × 3 µmol/kg i.p.) was 4, the “Body Weight (g) End of Study” value ([6]; dose 38.42 × 3 µmol/kg i.p., start of study 21.0 g) was 21.6 g and the “Mice Number End of Study” value ([6]; dose 57.63 × 3 µmol/kg i.p.) was 4. The “Body Weight (g) End of Study” value ([6]; dose 57.63 × 3 µmol/kg i.p., start of study 19.8 g) was 22.1 g.

Work on CC[C@@]1(O)C(=O)OCc2c1cc1n(c2=O)Cc2cc3cc(OCCCOC(=O)CCC(C)C4CCC5C6C(C[C@H](O)C45)C4CC[C@@H](O)CC4C[C@H]6O)ccc3nc2-1 (stereo partly drawn) [Compound H1, 10-O-(3-O-(3′α,7′α,12′α-Trihydroxy-24′-carbonyl-5′β-cholan)-propyl)-20(S)-camptothecin] yielded an IC50 [1] of 3.2 µM, an IC50 [2] of 7.4 µM and an IC50 [3] of 3 µM.

With CC[C@@]1(O)C(=O)OCc2c1cc1n(c2=O)Cc2cc3cc(OCCCOC(=O)CCC(C)C4CCC5C6CCC7C[C@H](O)CCC7C6C[C@H](O)C45)ccc3nc2-1 (stereo partly drawn) [Compound H2, 10-O-(3-O-(3′α,12′α-Dihydroxy-24′-carbonyl-5′β-cholan)-propyl)-20(S)-camptothecin] the half-life at 97.6 µM [4] was greater than 24 h, the “TIR (%)” value ([5]; dose 18.82 × 3 µmol/kg) was 13.27% and the “TIR (%)” value ([5]; dose 37.64 × 3 µmol/kg) was 57.99%. For the same compound, the “TIR (%)” value ([5]; dose 56.46 × 3 µmol/kg) was 61.19%, the IC50 [1] was 2.74 µM and the IC50 [2] was 0.8 µM. For the same compound, the IC50 [3] was 2.5 µM, the “Mice Number End of Study” value ([6]; dose 18.82 × 3 µmol/kg i.p.) was 3 and the “Body Weight (g) End of Study” value ([6]; dose 18.82 × 3 µmol/kg i.p., start of study 22.1 g) was 21.1 g. The “Mice Number End of Study” value ([6]; dose 37.64 × 3 µmol/kg i.p.) was 4, the “Body Weight (g) End of Study” value ([6]; dose 37.64 × 3 µmol/kg i.p., start of study 21.9 g) was 18.2 g and the “Mice Number End of Study” value ([6]; dose 56.46 × 3 µmol/kg i.p.) was 3. For the same compound, the “Body Weight (g) End of Study” value ([6]; dose 56.46 × 3 µmol/kg i.p., start of study 21.6 g) was 20.0 g.

For CC[C@@]1(O)C(=O)OCc2c1cc1n(c2=O)Cc2cc3cc(OCCCOC(=O)CCC(C)C4CCC5C4CCC4C6CC[C@@H](O)CC6C[C@H](O)C45)ccc3nc2-1 (stereo partly drawn) [Compound H3, 10-O-(3-O-(3′α,7′β-Dihydroxy-24′-carbonyl-5′β-cholan)-propyl)-20(S)-camptothecin], the IC50 [1] was 3.34 µM, the IC50 [2] was 0.8 µM and the IC50 [3] was 2.8 µM.

CC[C@@]1(O)C(=O)OCc2c1cc1n(c2=O)Cc2cc3cc(OCCCOC(=O)CCC(C)C4CCC5C4CCC4C6CC[C@@H](O)CC6C[C@@H](O)C45)ccc3nc2-1 (stereo partly drawn) [Compound H4, 10-O-(3-O-(3′α,7′α-Dihydroxy-24′-carbonyl-5′β-cholan)-propyl)-20(S)-camptothecin] gave an IC50 [1] of 2.18 µM, an IC50 [2] of 1.4 µM and an IC50 [3] of 30 µM.
